Measurements taken from US8569302B2, “Inhibitors of flaviviridae viruses” (Gilead Sciences, Inc., priority 2009, dated 2013).

Test system: human hepatoma Huh-7 cell line harboring a HCV replicon
Assay: HCV replicon assay (inhibition of viral replication, luciferase readout)
Type: cell-based
Conditions: Hepatitis C virus, 72 h, Huh-7 HCV replicon cells, 3 days incubation
Experimental: The anti-HCV activity of the compounds of this invention was tested in a human hepatoma Huh-7 cell line harboring a HCV replicon. The assay comprised the following steps:
Step 1: Compound Preparation and Serial Dilution.
Serial dilution was performed in 100% DMSO in a 384-well plate. A solution containing a compound at 225-fold concentration of the starting final serial dilution concentration was prepared in 100% DMSO and 15 μL added to the pre-specified wells in column 3 or 13 of a polypropylene 384-well plate. The rest of the 384-well plate was filled with 10 μL 100% DMSO except for columns 23 and 24, where 10 μL of 500 μM a HCV protease inhibitor (ITMN-191) in 100% DMSO was added. The HCV protease inhibitor was used a control of 100% inhibition of HCV replication. The plate was then placed on a Biomek FX Workstation to start the serial dilution. The serial dilution was performed for ten cycles of 3-fold dilution from column 3 to 12 or from column 13 to 22.
Step 2: Cell Culture Plate Preparation and Compound Addition
To each well of a black polypropylene 384-well plate, 90 μL of cell media containing 1600 suspended Huh-7 HCV replicon cells was added with a Biotek uFlow Workstation. A volume of 0.4 μL of the compound solution was transferred from the serial dilution plate to the cell culture plate on a Biomek FX Workstation. The DMSO concentration in the final assay condition was 0.44%. The plates were incubated for 3 days at 37° C. with 5% CO2 and 85% humidity.
Step 3: Detection of Cytotoxicity and Inhibition of Viral Replication
a) Assessment of cytotoxicity: The media in the 384-well cell culture plate was aspirated with a Biotek EL405 plate-washer. A volume of 50 μL of a solution containing 400 nM Calcein AM in 100% PBS was added to each well of the plate with a Biotek uFlow Workstation. The plate was incubated for 30 minutes at room temperature before the fluorescence signal ([…]) was measured with a Perkin Elmer Envision Plate Reader.
b) Assessment of inhibition of viral replication: The calcein-PBS solution in the 384-well cell culture plate was aspirated with a Biotek EL405 plate-washer. A volume of 20 μL of Dual-Glo luciferase buffer (Promega, Dual-Glo Luciferase Assay Reagent, cat. #E298B) was added to each well of the plate with a Biotek uFlow Workstation. The plate was incubated for 10 minutes at room temperature. A volume of 20 μL of a solution containing 1:100 mixture of Dual-Glo Stop & Glo substrate (Promega, Dual-Glo Luciferase Assay Reagent, cat. #E313B) and Dual-Glo Stop & Glo buffer (Promega, Dual-Glo Luciferase Assay Reagent, cat. #E314B) was then added to each well of the plate with a Biotek uFlow Workstation. The plate was incubated at room temperature for 10 minutes before the luminescence signal was measured with a Perkin Elmer Envision Plate Reader.
The percent cytotoxicity was determined by calcein AM conversion to fluorescent product. The average fluorescent signal from the DMSO control wells was defined as 100% nontoxic. The individual fluorescent signal from testing compound treated well was divided by the average signal from DMSO control wells and then multiplied by 100% to get the percent viability. The percent anti-HCV replication activity was determined by the luminescence signal from the testing well compared to DMSO control wells. The background signal was determined by the average luminescence signal from the HCV protease inhibitor treated wells and was subtracted from the signal from the testing wells as well as the DMSO control wells. Following 3-fold serial dilutions, the EC50 and CC50 values were calculated by fitting % inhibition at each concentration to the following equation: % inhibition=100%/[EC50/[I])^b+1]
Where b is Hill's coefficient. See, for reference, Hill, A. V., The Possible Effects of the Aggregation of the Molecules of Hæmoglobin on its Dissociation Curves, J. Physiol. 40: iv-vii. (1910). […]

Row | SMILES | inhibition at 2 µM [%]
1 | CC(C)(C)C#Cc1cc(N(C(=O)[C@H]2CC[C@H](C)CC2)[C@H]2C[C@H](Oc3ncccn3)C2)c(C(=O)O)s1 [Compound 23, 5-(3,3-Dimethyl-but-1-ynyl)-3-{(trans-4-methyl-cyclohexanecarbonyl)-[trans-3-(pyrimidin-2-yloxy)-cyclobutyl]-amino}-thiophene-2-carboxylic acid] | 99.5
2 | CC1CCC(C(=O)N(c2cc(C#CC(C)(C)C)sc2C(=O)O)[C@H]2CC[C@H](Oc3ccnc4ccccc34)CC2)CC1 (stereo partly drawn) [Compound 25, 5-(3,3-Dimethyl-but-1-ynyl)-3-{(4-methyl-cyclohexanecarbonyl)-[4-(quinolin-4-yloxy)-cyclohexyl]-amino}-thiophene-2-carboxylic acid] | 99.3
3 | CCc1cc(O[C@H]2CC[C@H](N(C(=O)C3CCC(C)CC3)c3cc(C#CC(C)(C)C)sc3C(=O)O)CC2)cc(CC)n1 (stereo partly drawn) [Compound 26, 3-[[4-(2,6-diethyl-pyridin-4-yloxy)-cyclohexyl]-(4-methyl-cyclohexanecarbonyl)-amino]-5-(3,3-Dimethyl-but-1-ynyl)-thiophene-2-carboxylic acid] | 99.8
4 | CC(C)(C)C#Cc1cc(N(C(=O)[C@H]2CC[C@H](C)CC2)[C@H]2CC[C@H](Oc3cc(CN4CCCC4)ccn3)CC2)c(C(=O)O)s1 [Compound 27, 5-(3,3-Dimethyl-but-1-ynyl)-3-{(trans-4-methyl-cyclohexanecarbonyl)-[trans-4-(4-pyrrolidin-1-ylmethyl-pyridin-2-yloxy)-cyclohexyl]-amino}-thiophene-2-carboxylic acid] | 100
5 | CC1CCC(C(=O)N(c2cc(C#CC(C)(C)C)sc2C(=O)O)[C@H]2CC[C@H](Oc3cc(CN4CCOCC4)ccn3)CC2)CC1 (stereo partly drawn) [Compound 28, 5-(3,3-Dimethyl-but-1-ynyl)-3-{(4-methyl-cyclohexanecarbonyl)-[4-(4-morpholin-4-ylmethyl-pyridin-2-yloxy)-cyclohexyl]-amino}-thiophene-2-carboxylic acid] | 99.7
6 | CC1CCC(C(=O)N(c2cc(C#CC(C)(C)C)sc2C(=O)O)[C@H]2CC[C@H](Oc3cc(CN(C)C)ccn3)CC2)CC1 (stereo partly drawn) [Compound 29, 3-[[-4-(4-dimethylaminomethyl-pyridin-2-yloxy)-cyclohexyl]-(4-methyl-cyclohexanecarbonyl)-amino]-5-(3,3-Dimethyl-but-1-ynyl)-thiophene-2-carboxylic acid] | 100
7 | CC1CCC(C(=O)N(c2ccc(Oc3ccccn3)cc2)c2cc(C#CC(C)(C)C)sc2C(=O)O)CC1 (stereo not drawn) [Compound 30, 5-(3,3-Dimethyl-but-1-ynyl)-3-{(4-methyl-cyclohexanecarbonyl)-[4-(pyridin-2-yloxy)-phenyl]-amino}-thiophene-2-carboxylic acid] | 70.7
8 | C[C@@H](CCOc1cccnc1)N(c1cc(C#CC(C)(C)C)sc1C(=O)O)C(=O)[C@H]1CC[C@H](C)CC1 [Compound 58] | 99.9
9 | C[C@@H](CCOc1ncccn1)N(c1cc(C#CC(C)(C)C)sc1C(=O)O)C(=O)[C@H]1CC[C@H](C)CC1 [Compound 59] | 99.9
10 | C[C@@H](CCOc1ccccn1)N(c1cc(C#CC(C)(C)C)sc1C(=O)O)C(=O)[C@H]1CC[C@H](C)CC1 [Compound 60] | 97.5
11 | C[C@@H](CCOc1cc(CN(C)C)ccn1)N(c1cc(C#CC(C)(C)C)sc1C(=O)O)C(=O)[C@H]1CC[C@H](C)CC1 [Compound 61, 3-[[3-(4-dimethylaminomethyl-pyridin-2-yloxy)-1-(S)-methyl-propyl]-(trans-4-methyl-cyclohexanecarbonyl)-amino]-5-(3,3-dimethyl-but-1-ynyl)-thiophene-2-carboxylic acid] | 99.9
12 | C[C@@H](CCOc1cc(CN2CCCC2)ccn1)N(c1cc(C#CC(C)(C)C)sc1C(=O)O)C(=O)[C@H]1CC[C@H](C)CC1 [Compound 62, 5-(3,3-dimethyl-but-1-ynyl)-3-[(trans-4-methyl-cyclohexanecarbonyl)-[1-(S)-methyl-3-(4-pyrrolidin-1-yl-methyl-pyridin-2-yloxy)-propyl]-amino]-thiophene-2-carboxylic acid] | 100
13 | C[C@@H](CCOc1ccc(O)nn1)N(c1cc(C#CC(C)(C)C)sc1C(=O)O)C(=O)[C@H]1CC[C@H](C)CC1 [Compound 63, 5-(3,3-dimethyl-but-1-ynyl)-3-[[3-(6-hydroxy-pyridazin-3-yloxy)-1-(S)-methyl-propyl]-(trans-4-methyl-cyclohexanecarbonyl)-amino]-thiophene-2-carboxylic acid] | 100
14 | Cn1cnnc1S[C@H]1CC[C@H](N(c2cc(C#CC(C)(C)C)sc2C(=O)O)C(=O)[C@H]2CC[C@H](C)CC2)CC1 [Compound 84, 5-(3,3-dimethylbut-1-ynyl)-3-(4-methyl-N-(4-(4-methyl-4H-1,2,4-triazol-3-ylthio)cyclohexyl)cyclohexanecarboxamido)thiophene-2-carboxylic acid] | 99.9
15 | Cn1cnnc1S[C@H]1CC[C@@H](N(c2cc(C#CC(C)(C)C)sc2C(=O)O)C(=O)[C@H]2CC[C@H](C)CC2)CC1 [Compound 85, 5-(3,3-dimethylbut-1-ynyl)-3-(4-methyl-N-(4-(4-methyl-4H-1,2,4-triazol-3-ylthio)cyclohexyl)cyclohexanecarboxamido)thiophene-2-carboxylic] | 99.6
16 | CC(C)(C)C#Cc1cc(N(C(=O)[C@H]2CC[C@H](C)CC2)[C@H]2CC[C@H](Sc3nncs3)CC2)c(C(=O)O)s1 [Compound 86, 3-(N-(4-(1,3,4-Thiadiazol-2-ylthio)cyclohexyl)-4-methylcyclohexanecarboxamido)-5-(3,3-dimethylbut-1-ynyl)thiophene-2-carboxylic acid] | 100
17 | CC(C)(C)C#Cc1cc(N(C(=O)[C@H]2CC[C@H](C)CC2)[C@H]2CC[C@H](Sc3ccncc3)CC2)c(C(=O)O)s1 [Compound 87, 5-(3,3-Dimethylbut-1-ynyl)-3-(4-methyl-N-(4-(pyridin-4-ylthio)cyclohexyl)cyclohexanecarboxamido)thiophene-2-carboxylic acid] | 99.5
18 | CC(C)(C)C#Cc1cc(N(C(=O)[C@H]2CC[C@H](C)CC2)[C@H]2CC[C@H](Sc3cccc[n+]3[O-])CC2)c(C(=O)O)s1 [Compound 88] | 98.5
19 | CCn1ccnc1S[C@H]1CC[C@H](N(c2cc(C#CC(C)(C)C)sc2C(=O)O)C(=O)[C@H]2CC[C@H](C)CC2)CC1 [Compound 89, 5-(3,3-Dimethylbut-1-ynyl)-3-(N-(4-(1-ethyl-1H-imidazol-2-ylthio)cyclohexyl)-4-methylcyclohexanecarboxamido)thiophene-2-carboxylic acid] | 99.4
20 | CC(C)(C)C#Cc1cc(N(C(=O)[C@H]2CC[C@H](C)CC2)[C@H]2CC[C@H](Sc3nncn3C3CC3)CC2)c(C(=O)O)s1 [Compound 90, 3-(N-(4-(4-Cyclopropyl-4H-1,2,4-triazol-3-ylthio)cyclohexyl)-4-methylcyclohexanecarboxamido)-5-(3,3-dimethylbut-1-ynyl)thiophene-2-carboxylic acid] | 100
21 | CC(C)(C)C#Cc1cc(N(C(=O)[C@H]2CC[C@H](C)CC2)[C@H]2CC[C@H](Sc3ccc4ccccc4n3)CC2)c(C(=O)O)s1 [Compound 91, 5-(3,3-Dimethylbut-1-ynyl)-3-(4-methyl-N-(4-(quinolin-2-ylthio)cyclohexyl)cyclohexanecarboxamido)thiophene-2-carboxylic acid] | 99.8
